Results taken from ChEMBL document CHEMBL1201862, “PubChem BioAssay data set” (2004).
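Five concentrations, 48 hours, 96-well plates. Abbreviation: GI50, concentration required for 50% inhibition of growth.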 Calls of active or inactive are those of the source. Rule as the data show it: active = GI50 up to about 1.1 µM and inactive = higher.

Experiments:
Assay in all cases: inhibition of tumour cell growth, NCI panel, 48 h
CCRF-CEM = tested on: CCRF-CEM
NCI-H226 = tested on: NCI-H226
SNB-75 = tested on: SNB-75
OVCAR-4 = tested on: OVCAR-4
BT-549 = tested on: BT-549
OVCAR-8 = tested on: OVCAR-8
SK-MEL-5 = tested on: SK-MEL-5
OVCAR-5 = tested on: OVCAR-5
LOX IMVI = tested on: LOX IMVI
M14 = tested on: M14
OVCAR-3 = tested on: OVCAR-3
UACC-257 = tested on: UACC-257
HCT-116 = tested on: HCT-116
UO-31 = tested on: UO-31
HOP-92 = tested on: HOP-92
CAKI-1 = tested on: CAKI-1
U-251 = tested on: U-251
NCI/ADR-RES = tested on: NCI/ADR-RES
MCF7 = tested on: MCF7

Measured: GI50

COc1ccc(N2C(=O)C3c4[nH]c5ccccc5c4C4CCC(c5ccccc5)CC4C3C2=O)cc1 (stereo not given)
inactive: CCRF-CEM 6 µM | NCI-H226 > 45.7 µM | SNB-75 6.04 µM | OVCAR-4 8.87 µM | BT-549 31.4 µM | OVCAR-8 17.3 µM | SK-MEL-5 26.1 µM | OVCAR-5 45.1 µM | LOX IMVI > 32.5 µM | M14 30.5 µM | OVCAR-3 > 64 µM | UACC-257 48.4 µM | HCT-116 > 39.8 µM | UO-31 46.8 µM | HOP-92 16.1 µM | CAKI-1 17.4 µM | U-251 5.92 µM | NCI/ADR-RES > 34.2 µM | MCF7 39 µM

COc1ccc(Nc2nc3cc(C(F)(F)F)ccc3nc2C(=O)O)cc1OC
inactive: CCRF-CEM 16.2 µM | NCI-H226 16.4 µM | SNB-75 62.7 µM | OVCAR-4 35.4 µM | BT-549 26.3 µM | OVCAR-8 39.5 µM | SK-MEL-5 22.4 µM | OVCAR-5 58.9 µM | LOX IMVI 28.9 µM | M14 37.4 µM | OVCAR-3 17.5 µM | UACC-257 29.6 µM | HCT-116 27.4 µM | UO-31 28.2 µM | HOP-92 19 µM | CAKI-1 27 µM | U-251 35.8 µM | NCI/ADR-RES 30.8 µM | MCF7 45.2 µM

CCOc1ccc(NC(=O)C(=O)C(/C(=N/N)C(=O)OC)c2nc3ccc([N+](=O)[O-])cc3nc2O)cc1 (stereo not given)
inactive: CCRF-CEM > 100 µM | NCI-H226 > 100 µM | SNB-75 > 100 µM | OVCAR-4 > 100 µM | BT-549 > 100 µM | OVCAR-8 > 100 µM | SK-MEL-5 > 100 µM | OVCAR-5 > 100 µM | LOX IMVI > 100 µM | M14 > 100 µM | OVCAR-3 > 100 µM | UACC-257 > 100 µM | HCT-116 > 100 µM | UO-31 > 100 µM | HOP-92 > 100 µM | CAKI-1 > 100 µM | U-251 > 100 µM | NCI/ADR-RES > 100 µM | MCF7 > 100 µM

O=C1OC(C2Cc3ccccc3C2=O)c2ccccc21 (stereo not given)
inactive: CCRF-CEM > 100 µM | NCI-H226 > 100 µM | SNB-75 > 100 µM | OVCAR-4 > 100 µM | BT-549 > 100 µM | OVCAR-8 > 100 µM | SK-MEL-5 > 100 µM | OVCAR-5 > 100 µM | LOX IMVI 99.1 µM | M14 > 100 µM | OVCAR-3 > 100 µM | UACC-257 > 100 µM | HCT-116 > 100 µM | UO-31 > 100 µM | HOP-92 > 100 µM | CAKI-1 > 100 µM | U-251 > 100 µM | NCI/ADR-RES > 100 µM | MCF7 > 100 µM

CNn1c(-c2ccccc2)n[nH]c1=O
inactive: CCRF-CEM > 100 µM | NCI-H226 > 100 µM | SNB-75 > 100 µM | OVCAR-4 > 100 µM | BT-549 > 100 µM | OVCAR-8 > 100 µM | SK-MEL-5 > 100 µM | OVCAR-5 > 100 µM | LOX IMVI > 100 µM | M14 > 100 µM | OVCAR-3 > 100 µM | UACC-257 > 100 µM | HCT-116 > 100 µM | UO-31 > 100 µM | HOP-92 > 100 µM | CAKI-1 > 100 µM | U-251 > 100 µM | NCI/ADR-RES > 100 µM | MCF7 > 100 µM
